# Source: patent US20040192720A1, “Novel heteroaryl alkylamide derivatives useful as bradykinin receptor modulators” (priority 2003, published 2004)
# Columns and labels:
# [1] = target: T1, human B2 bradykinin receptors (CHO-hB2 cell membranes) (Homo sapiens, UniProt P30411); assay: [35S]GTPγS Binding Assay in CHO-hB2 Cell Membranes; type: biochemical; details: bradykinin-stimulated [35S]GTPγS binding; for Functional Activity (% Basal): number in parentheses, concentration not given
# T1 construct: purchased Receptor Biology, Inc. (Baltimore, Md.); host or cells: CHO-hB2 cells (membranes)
# T1 sequence (P30411 1-391): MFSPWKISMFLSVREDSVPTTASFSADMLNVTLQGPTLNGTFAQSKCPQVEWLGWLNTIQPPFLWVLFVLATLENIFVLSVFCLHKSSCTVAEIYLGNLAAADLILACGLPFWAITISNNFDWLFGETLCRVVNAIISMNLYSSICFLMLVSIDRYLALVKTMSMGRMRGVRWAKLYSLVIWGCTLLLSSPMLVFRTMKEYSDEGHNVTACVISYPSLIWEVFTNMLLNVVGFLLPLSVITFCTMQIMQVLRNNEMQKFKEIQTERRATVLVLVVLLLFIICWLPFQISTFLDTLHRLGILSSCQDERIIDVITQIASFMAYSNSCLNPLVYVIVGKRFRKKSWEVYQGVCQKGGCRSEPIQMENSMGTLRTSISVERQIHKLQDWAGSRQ
# Protocol: [^35S]GTPγS Binding Assay in CHO-hB2Cell Membranes
# CHO-hB2 cell membranes were purchased from Receptor Biology, Inc. (Baltimore, Md.). 10 mg/mL of membrane protein was suspended in 10 mM TRIS-HC pH 7.2, 2 mM EDTA, 10% sucrose.
# Membranes were added into 15 mL ice cold binding assay buffer. The assay buffer contained 50 mM HEPES, pH 7.6, 5 mM MgCl2, 100 mM NaCl, 1 mM DTT and 1 mM EDTA. The membrane suspension was homogenized twice with a Polytron and centrifuged at 3000 rpm for 10 min. The supernatant was then centrifuged at 18,000 rpm for 20 min. The pellet was saved in a tube and resuspended.
# The pellet membranes (40 μg/mL) were preincubated with SPA (scintillation proximity assay) beads (20 mg/mL) at 25 C. ° for 45 min in the assay buffer. The SPA beads (5 mg/mL) coupled with membranes (10 μg/mL) were then incubated with 0.5 nM [^35S]GTPγS in the same HEPES buffer containing 50 μM GDP in total volume of 200 μL. Bradykinin was used to stimulate [^35S]GTPγS binding. Varying concentrations of drugs were incubated with bradykinin to inhibit bradykinin-stimulated [^35S]GTPγS binding. The basal binding was tested in the absence of bradykinin and no specific binding was tested in the present 10 μM unlabeled GTPγS. The radioactivity was quantified on a Packard Top Count, and calculated.
# % of Basal=(stimulated binding−non specific binding)/(basal binding−non specific binding)×100.
# [2] = test system: kaolin-induced abdominal irritant response; assay: Graded Abdominal Irritant Test (GrAIT); type: in vivo; details: po; for % Inhibition: 30 minutes before kaolin 100 mg/kg i.p., dose not given; for ED50: read-out: ED50 (μmol/Kg, p.o.)
# Protocol: Graded Abdominal Irritant Test The […] Abdominal Irritant Test (GrAIT) is a modification of the methods described by Koster et al. (Koster R., Anderson M and DeBeer E. J. Fed. Proc. 1959, 18, 412). Prior to the test (30 minutes for oral or subcutaneous administration), each animal was administered a known analgesic, a test compound, or vehicle (0.05N HCl) by one of two routes (oral or subcutaneous). Kaolin (100 mg/kg) was injected intraperitoneally (using a standard 23G needle) at a volume of 10 mL/kg of body weight. Following the administration of the chemical agent, the animals were placed in glass bell jars (approximately 15 cm in diameter with wood chips on the bottom). […] A contraction of the abdominal musculature and an elongation of the body, which extends through to the hindlimbs, characterize this response. The responses were counted during the 15-minute period after the injection of the kaolin. A mechanical counter or a personal computer was used to collect the number of counts per animal, and animals were observed no more than 5 at a time. The mean number of counts (±SEM) for a group of animals receiving a known analgesic or test compound was compared to the mean for the group of animals which received only vehicle pretreatment (Control group). For each dose, % inhibition of the response was calculated. For each test compound, the ED50 value was calculated using a log dose regression analysis program (PharmTools software).
Compound,Functional Activity (word result) [1],Functional Activity (% Basal) [1] [% Basal],% Inhibition [2] [%],ED50 [2] [µmol/kg]
"Cc1ccc2cccc(OCc3c(Cl)ccc(N(C)C(=O)CCc4ccc(C(=O)c5cnccc5Cl)n4C)c3Cl)c2n1 [Compound 89, 3-[5-(4-Chloro-pyridine-3-carbonyl)-1-methyl-1H-pyrrol-2-yl]-N-[2,4-dichloro-3-(2-methyl-quinolin-8-yloxymethyl)-phenyl]-N-methyl-propionamide]",Antagonist,51,98,22.5
"Cc1ccc2cccc(OCc3c(C)ccc(N(C)C(=O)Cc4ccc(C(=O)c5cnccc5C#N)n4C)c3C)c2n1 [Compound 78, 2-[5-(4-Cyano-pyridine-3-carbonyl)-1-methyl-1H-pyrrol-2-yl]-N-[2,4-dimethyl-3-(2-methyl-quinolin-8-yloxymethyl)-phenyl]-N-methyl-acetamide]",Antagonist,83,82,114
"Cc1ccc2cccc(OCc3c(C)ccc(N(C)C(=O)Cc4ccc(C(=O)c5cnccc5Cl)n4C)c3C)c2n1 [Compound 77, 2-[5-(4-Chloro-pyridine-3-carbonyl)-1-methyl-1H-pyrrol-2-yl]-N-[2,4-dimethyl-3-(2-methyl-quinolin-8-yloxymethyl)-phenyl]-N-methyl-acetamide]",Antagonist,62,70,80.9
